Our source for the IC50 and Ki values is ChEMBL document CHEMBL3352529 (J Med Chem, 2014).

Bounds are passed on as bounds.

The target in test [1] is T1, Neuraminidase (Influenza A virus, UniProt A5Z252). Briefly: Inhibition of Influenza A virus A/chicken/china/1220/2012(H5N1) Neuraminidase N1.
The target of test [2] is T2, Neuraminidase (Influenza A virus, UniProt B4URF0). Also noted: species or system A/chicken/china/415/2013(H9N2).
In test [3] the target is T1, Neuraminidase. The test can be described thus: Binding affinity to Influenza A virus H5N1 Neuraminidase N1.
Test [4] concerns the target T2, Neuraminidase. Briefly: Binding affinity to Influenza A virus A/Paris/2590/2009 H1N1 Neuraminidase N1.
In test [5] the target is T1, Neuraminidase. Briefly: Binding affinity to Influenza A virus H3N2 Neuraminidase N1.
The target of test [6] is T1, Neuraminidase. Briefly: Inhibition of Influenza A virus H3N2 Neuraminidase N1.
Test [7] has as its target T1, Neuraminidase. Briefly: Inhibition of Influenza A virus H1N1 Neuraminidase N1.

T2 sequence (B4URF0 whole entry): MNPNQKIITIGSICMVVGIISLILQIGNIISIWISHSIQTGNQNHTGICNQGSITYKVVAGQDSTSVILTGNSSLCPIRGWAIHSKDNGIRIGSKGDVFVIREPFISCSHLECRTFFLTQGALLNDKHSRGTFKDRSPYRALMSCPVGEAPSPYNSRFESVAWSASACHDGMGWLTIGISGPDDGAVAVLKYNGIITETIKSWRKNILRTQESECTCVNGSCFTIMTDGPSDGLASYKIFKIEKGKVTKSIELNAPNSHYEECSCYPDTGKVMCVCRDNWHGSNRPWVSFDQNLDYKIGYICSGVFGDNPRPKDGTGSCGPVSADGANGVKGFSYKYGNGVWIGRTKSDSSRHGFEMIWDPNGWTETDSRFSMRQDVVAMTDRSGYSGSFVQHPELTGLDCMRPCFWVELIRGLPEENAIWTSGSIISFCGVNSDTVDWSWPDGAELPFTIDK

What is called IC50 is the concentration needed to halve the response being measured. Read a high IC50 as lower potency. For the compound `CCC(CC)O[C@@H]1C=C(C(=O)O)C[C@H](N(Cc2cccs2)C(=N)N)[C@H]1NC(C)=O`, the IC50 in test [1] is 200 nM; in test [2], 210 nM.

As for `CCC(CC)O[C@@H]1C=C(C(=O)O)C[C@H](N(CC(C)C)C(=N)N)[C@H]1NC(C)=O`, the values for the IC50 in test [1] and in test [2] were 230 nM and greater than 5000 nM, respectively.

In the case of `CCCCCN(C(=N)N)[C@H]1CC(C(=O)O)=C[C@@H](OC(CC)CC)[C@@H]1NC(C)=O`, the 50% inhibitory concentration (IC50) in test [1] was 780 nM; in test [2], greater than 5000 nM.

In the case of `CCC(CC)O[C@@H]1C=C(C(=O)O)C[C@H](NCc2ccccc2Br)[C@H]1NC(C)=O`, the IC50 in test [1] was found to be 13 nM; in test [2], 1150 nM.

With `CCC(CC)O[C@@H]1C=C(C(=O)O)C[C@H](NCc2ccccc2)[C@H]1NC(C)=O`, the 50% inhibitory concentration (IC50) in test [1] worked out at 7.1 nM; in test [2], 2440 nM.

Regarding `CCC(CC)O[C@@H]1C=C(C(=O)O)C[C@H](NCc2ccc(-c3ccccc3)cc2-c2ccccc2)[C@H]1NC(C)=O`, the half-inhibitory concentration (IC50) in test [1] was 43 nM; in test [2], 3.2 nM.

As to `CCC(CC)O[C@@H]1C=C(C(=O)O)C[C@H](N(Cc2ccccc2)C(=N)N)[C@H]1NC(C)=O`, the values for the concentration for half-maximal inhibition (IC50) in test [1] and in test [2] were 1170 nM and 2600 nM, respectively.

In the case of `CCC(CC)O[C@@H]1C=C(C(=O)O)C[C@H](NCCCN)[C@H]1NC(C)=O`, the concentration for half-maximal inhibition (IC50) is greater than 100 nM in test [1] and 950 nM in test [2].

The Ki is the equilibrium dissociation constant of an inhibitor or competing ligand from its target. Low readings indicate tighter binding, high ones weaker binding. Take `CC(=O)N[C@H]1C([C@H](O)[C@H](O)CO)OC(C(=O)O)=C(C/C=C/c2ccc(C)cc2)[C@@H]1O` (stereo partly drawn): the inhibitory constant (Ki) in test [3] stood at 7300 nM; in test [4], 1700 nM; in test [5], 219000 nM.

As for `CCC(CC)O[C@@H]1C=C(C(=O)O)C[C@H](NCc2ccccc2OC)[C@H]1NC(C)=O`, the results for the concentration for half-maximal inhibition (IC50) in test [1] and in test [2] were 31 nM and 1640 nM, respectively.

For the compound `CCC(CC)O[C@@H]1C=C(C(=O)O)C[C@H](N(Cc2ccc(-c3ccccc3)cc2)C(=N)N)[C@H]1NC(C)=O`, the IC50 in test [1] was determined as 150 nM; in test [2] it was 470 nM.

Consider `CCC(CC)O[C@@H]1C=C(C(=O)O)C[C@H](NCc2ccccc2F)[C@H]1NC(C)=O`, for which the IC50 was found to be 10 nM in test [1] and 2720 nM in test [2].

Take `CCC(CC)O[C@@H]1C=C(C(=O)O)C[C@H](N(Cc2ccccc2OC)C(=N)N)[C@H]1NC(C)=O`: the concentration for half-maximal inhibition (IC50) came to 550 nM in test [1] and 490 nM in test [2].

As for `CCC(CC)O[C@@H]1C=C(C(=O)O)C[C@H](N(Cc2ccc(C(C)C)cc2)C(=N)N)[C@H]1NC(C)=O`, the IC50 in test [1] was determined as 1440 nM; in test [2] it was 2370 nM.

Turning to `CCC(CC)O[C@@H]1C=C(C(=O)NO)C[C@H](N)[C@H]1NC(C)=O`, the IC50 in test [1] was greater than 100 nM; in test [2] it was 110 nM.

On to `CCC(CC)O[C@@H]1C=C(C(=O)O)C[C@H](NC(=N)N)[C@H]1NC(C)=O`, for which the half-maximal inhibitory concentration (IC50) amounted to 6.9 nM in test [1] and 6.4 nM in test [2].

Consider `CCC(CC)CN[C@H]1CC(C(=O)O)=C[C@@H](OC(CC)CC)[C@@H]1NC(C)=O`, for which the IC50 was 27 nM in test [1] and 300 nM in test [2].

Turning to `CC(=O)N[C@H]1[C@H]([C@H](O)[C@H](O)CO)OC(C(=O)O)=C[C@@H]1NC(=N)NC(=O)CSc1cccc2ccccc12`, the figures for the concentration for half-maximal inhibition (IC50) in test [6] and in test [7] were 25 nM and 21 nM, respectively.

`CCCN(C(=N)N)[C@H]1CC(C(=O)O)=C[C@@H](OC(CC)CC)[C@@H]1NC(C)=O`: the results for the IC50 in test [1] and in test [2] were 670 nM and greater than 5000 nM, respectively.

With `CCCCN[C@H]1CC(C(=O)O)=C[C@@H](OC(CC)CC)[C@@H]1NC(C)=O`, the values for the IC50 in test [1] and in test [2] were 19 nM and 2280 nM, respectively.

As to `CCC(CC)O[C@@H]1C=C(C(=O)O)C[C@H](NCc2ccc(-c3ccccc3)cc2)[C@H]1NC(C)=O`, the half-maximal inhibitory concentration (IC50) came out at 1.9 nM in test [1] and 1200 nM in test [2].

With `CCC(CC)O[C@@H]1C=C(C(=O)O)C[C@H](NCc2ccc(-c3cccs3)cc2)[C@H]1NC(C)=O`, the values for the half-maximal inhibitory concentration (IC50) in test [1] and in test [2] were 2.1 nM and 3520 nM, respectively.

Take `CCC(CC)O[C@@H]1C=C(C(=O)O)C[C@H](NCc2ccccc2O)[C@H]1NC(C)=O`: the half-maximal inhibitory concentration (IC50) in test [1] was 21 nM; in test [2], greater than 5000 nM.

As to `CCC(CC)CN(C(=N)N)[C@H]1CC(C(=O)O)=C[C@@H](OC(CC)CC)[C@@H]1NC(C)=O`, the half-maximal inhibitory concentration (IC50) in test [1] was 950 nM; in test [2] it was greater than 5000 nM.

`CCC(CC)O[C@@H]1C=C(C(=O)O)C[C@H](NCC(C)C)[C@H]1NC(C)=O`: the figures for the IC50 in test [1] and in test [2] were 78 nM and greater than 5000 nM, respectively.

Consider `CCC(CC)O[C@@H]1C=C(C(=O)NO)C[C@H](NC(=N)N)[C@H]1NC(C)=O`, for which the IC50 was greater than 100 nM in test [1] and 200 nM in test [2].

Take `CCC(CC)O[C@@H]1C=C(C(=O)O)C[C@H](NC/C=C/c2ccccc2)[C@H]1NC(C)=O`: the IC50 was found to be 14 nM in test [1] and 4020 nM in test [2].

For the compound `C=CCOc1ccccc1CN[C@H]1CC(C(=O)O)=C[C@@H](OC(CC)CC)[C@@H]1NC(C)=O`, the half-maximal inhibitory concentration (IC50) in test [1] turned out to be 90 nM; in test [2], 4700 nM.

As for `CCC(CC)O[C@@H]1C=C(C(=O)O)C[C@H](NCc2ccccc2Cl)[C@H]1NC(C)=O`, the IC50 in test [1] is 3.6 nM; in test [2] it was 980 nM.

On to `CCC(CC)O[C@@H]1C=C(C(=O)O)C[C@H](NCc2cccs2)[C@H]1NC(C)=O`, for which the concentration for half-maximal inhibition (IC50) in test [1] was found to be 15 nM; in test [2], 740 nM.

Take `CCC(CC)O[C@@H]1C=C(C(=O)O)C[C@H](NCc2ccc(-c3ccccc3)cc2Cl)[C@H]1NC(C)=O`: the IC50 stood at 11 nM in test [1] and 2020 nM in test [2].

On to `CCCCN(C(=N)N)[C@H]1CC(C(=O)O)=C[C@@H](OC(CC)CC)[C@@H]1NC(C)=O`, for which the IC50 in test [1] turned out to be 1140 nM; in test [2], 1480 nM.

Take `CCC(CC)O[C@@H]1C=C(C(=O)O)C[C@H](NCc2ccccc2OCc2ccco2)[C@H]1NC(C)=O`: the half-inhibitory concentration (IC50) in test [1] was 59 nM; in test [2], 1530 nM.

In the case of `CCC(CC)O[C@@H]1C=C(C(=O)O)C[C@H](N(CCC(C)C)C(=N)N)[C@H]1NC(C)=O`, the half-maximal inhibitory concentration (IC50) in test [1] is 370 nM; in test [2], greater than 5000 nM.

As to `CCC(CC)O[C@@H]1C=C(C(=O)O)C[C@H](NCCCc2ccccc2)[C@H]1NC(C)=O`, the results for the concentration for half-maximal inhibition (IC50) in test [1] and in test [2] were 32 nM and greater than 5000 nM, respectively.

Regarding `CCC(CC)O[C@@H]1C=C(C(=O)O)C[C@H](N(CCCc2ccccc2)C(=N)N)[C@H]1NC(C)=O`, the IC50 is 790 nM in test [1] and greater than 5000 nM in test [2].
